Experimental data: patent publication EP1415984A1, “Aryloxyarylsulfonylamino hydroxamic acid derivatives” (Pfizer Products Inc., priority 1997, dated 1999)
Values joined by “and” are separate entries in the source; they are usually repeats but may differ in a detail not shown here. Identical values can stand only once.

Key:
[1] = molecular target: T1, Human Collagenase (MMP-1) (Homo sapiens, UniProt P03956); test: Inhibition of Human Collagenase (MMP-1), fluorogenic peptide substrate; assay type: biochemical; settings: human recombinant collagenase activated with trypsin; each table line is a separate determination
T1 sequence (P03956 100-469): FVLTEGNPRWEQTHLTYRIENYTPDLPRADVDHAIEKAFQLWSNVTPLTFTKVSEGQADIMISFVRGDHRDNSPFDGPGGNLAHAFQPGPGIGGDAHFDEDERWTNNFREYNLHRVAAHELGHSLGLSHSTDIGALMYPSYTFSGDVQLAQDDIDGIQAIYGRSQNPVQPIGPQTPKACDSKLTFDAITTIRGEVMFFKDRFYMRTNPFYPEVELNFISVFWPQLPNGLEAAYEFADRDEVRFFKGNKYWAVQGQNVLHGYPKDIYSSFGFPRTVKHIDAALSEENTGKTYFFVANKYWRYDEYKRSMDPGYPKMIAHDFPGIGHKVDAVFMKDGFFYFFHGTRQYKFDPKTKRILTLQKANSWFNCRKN
Procedure: Inhibition of Human Collagenase (MMP-1)
Human recombinant collagenase is activated with trypsin using the following ratio: […] of collagenase. The trypsin and collagenase are incubated at room temperature for 10 minutes then a five fold excess (50 mg/10 mg trypsin) of soybean trypsin inhibitor is added.
10 mM stock solutions of inhibitors are made up in dimethyl sulfoxide and then diluted using the following Scheme: 10 mM ―> 120 µM ―> 12 µM ―> 1.2 µM ―> 0.12 µM
Twenty-five microliters of each concentration is then added in triplicate to appropriate wells of a 96 well microfluor plate. The final concentration of inhibitor will be a 1:4 dilution after addition of enzyme and substrate. Positive controls (enzyme, no inhibitor) are set up in wells D1-D6 and blanks (no enzyme, no inhibitors) are set in wells D7-D12.
Collagenase is diluted to 400 ng/ml and […] is then added to appropriate wells of the microfluor plate. Final concentration of collagenase in the assay is 100 ng/ml.
Substrate (DNP-Pro-Cha-Gly-Cys(Me)-His-Ala-Lys(NMA)-NH2) is made as a 5 mM stock in dimethyl sulfoxide and then diluted to […] in assay buffer. The assay is initiated by the addition of […] substrate per well of the microfluor plate to give a final concentration of […].
Fluorescence readings (360 nm excitation. 460 nm emission) were taken at time 0 and then at 20 minute intervals. The assay is conducted at room temperature with a typical assay time of 3 hours.
Fluorescence vs time is then plotted for both the blank and collagenase containing samples (data from triplicate determinations is averaged). […] The zero time is used as a blank for each compound at each concentration and these values are subtracted from the 120 minute data. Data is plotted as inhibitor concentration vs % control (inhibitor fluorescence divided by fluorescence of collagenase alone x 100). IC50's are determined from the concentration of inhibitor that gives a signal that is 50% of the control. […]

Human recombinant MMP-13 = Human recombinant MMP-13 (Homo sapiens, UniProt P45452); test: Inhibition of MMP-13, fluorogenic peptide substrate; assay type: biochemical; settings: human recombinant MMP-13 activated with APMA; each table line is a separate determination
Procedure: Human recombinant MMP-13 is activated with 2mM APMA (p-aminophenyl mercuric acetate) for 1.5 hours, at 37°C and is diluted to […] in assay buffer (50 mM Tris, pH 7.5, 200 mM sodium chloride, 5mM calcium chloride, […], 0.02% brij). Twenty-five microliters of diluted enzyme is added per well of a 96 well microfluor plate. The enzyme is then diluted in a 1:4 ratio in the assay by the addition of inhibitor and substrate to give a final concentration in the assay of […].
10 mM stock solutions of inhibitors are made up in dimethyl sulfoxide and then diluted in assay buffer as per the inhibitor dilution scheme for inhibition of human collagenase (MMP-1): Twenty-five microliters of each concentration is added in triplicate to the microfluor plate. The final concentrations in the assay are 30 mM, 3mM, 0.3 mM, and 0.03 mM.
Substrate (Dnp-Pro-Cha-Gly-Cys(Me)-His-Ala-Lys(NMA)-NH2) is prepared as for inhibition of human collagenase (MMP-1) and […] is added to each well to give a final assay concentration of […]. Fluorescence readings (360 nm excitation; 450 emission) are taken at time 0 and every 5 minutes for 1 hour.
Positive controls consist of enzyme and substrate with no inhibitor and blanks consist of substrate only.
IC50's are determined as per inhibition of human collagenase (MMP-1). If IC50's are reported to be less than […], inhibitors are then assayed at final concentrations of 0.3 mM, 0.03 mM, 0.003 mM and 0.0003 mM.

| SMILES | IC50 [1] | IC50 (Human recombinant MMP-13) |
| --- | --- | --- |
| CCOC(=O)CCN(C(C)(C)C(=O)NO)S(=O)(=O)c1ccc(Oc2ccc(F)cc2)cc1 [Example 3, 3-[[4-(4-FLUOROPHENOXY)BENZENESULFONYL]-(1-HYDROXYCARBAMOYL-1-METHYLETHYL)AMINO]PROPIONIC ACID ETHYL ESTER] | 1.2 µM and 1.8 µM | 0.0016 µM and 0.0023 µM |
| CC(C)(C(=O)NO)N(CCC(=O)O)S(=O)(=O)c1ccc(Oc2ccc(F)cc2)cc1 [Example 4, 3-[[4-(4-FLUOROPHENOXY)BENZENESULFONYL)-(1-HYDROXYCARBAMOYL-1-METHYLETHYL)AMINO]PROPIONIC ACID] | 3.5 µM and 2 µM and 4.8 µM | 0.0057 µM and 0.0023 µM and 0.008 µM |
| O=C(O)CCN(C1(C(=O)NO)CCCC1)S(=O)(=O)c1ccc(Oc2ccc(F)cc2)cc1 [Example 2, 3-[[4-(4-FLUOROPHENOXY)BENZENESULFONYL]-(1-HYDROXYCARBAMOYLCYCLOPENTYL) AMINO]PROPIONIC ACID] | 0.36 µM and 0.2 µM | 0.0012 µM and 0.0006 µM |
